Measured values reported in patent publication US20260137698A1, “CYCLIN-DEPENDENT KINASE 7 INHIBITORS” (JOINT STOCK COMPANY «BIOCAD», priority 2022, published 2026).
Read-outs that look alike come from different tables or passages of the source.

Legend:
[1] = target: CDK7/Cyclin H/MNAT1 (Homo sapiens, UniProt P50613); assay: Inhibition of CDK7/Cyclin H/MNAT1 kinase activity (ADP-Glo); type: biochemical
Method in brief: (§1)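 Kinase preincubated with compound (11 points, 4-fold steps from 50 μM) for 10 minutes at 25° C. in kinase buffer A with DTT, then reacted 40-60 minutes at 25° C. with ATP and CDKtide, Histone H1 or PDKtide substrate. ADP formation read by ADP-Glo luminescence; IC50 from four-parameter fit.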

[2] = target: CDK2/Cyclin A (Homo sapiens, UniProt P24941); assay: Inhibition of CDK2/Cyclin A kinase activity (ADP-Glo); type: biochemical
Method in brief: as §1

[3] = General cytotoxicity on primary differentiated HepaRG cells (72 h); type: cell-based; conditions: human, general toxicity, mean value from several measurements
Method in brief: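 Differentiated HepaRG cells, maintained a week in basal hepatic medium with maintenance/metabolism supplement, were plated at 25×10^3 cells/well overnight. Compounds (200 μM to 0.2 nM) were added for 72 h before viability readout.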

[4] = Passive membrane permeability through PAMPA artificial membrane, pH 7.4; type: in vitro ADME; conditions: pH 7.4, 10 μmol, 20 hours at room temperature, mean of multiple measurements, read-out: PAMPA passive permeability Pe
Method in brief: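 Compound at 10 μmol in 0.01 M phosphate buffer pH 7.4 placed in donor wells over lecithin-phospholipid-impregnated PVDF filter, buffer in acceptor; 20 h at room temperature. Donor and acceptor levels measured by RP-HPLC-UV; Pe (cm/s) and membrane retention R (%) calculated.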

[5] = Microsomal stability in rat liver microsomes (RLM); type: in vitro ADME; conditions: rat liver microsomes 0.5 mg/ml, 1 μM compound, NADPH
Protocol: The procedure for investigating the metabolism of selected compounds was carried out in microsomal fractions of the liver (of rats, mice, humans) in the presence of a phase I metabolism cofactor (NADPH).
The rate of enzymatic decomposition of the compound in liver microsomes in in vitro analysis was determined by keeping a reaction mixture comprising 0.5 mg/ml of pooled human, rat or mouse liver microsomes, 1 μM test compound, 1.5 mM […] (Carbosynth, UK, cat. no. NN108711101) and 1.5 mM magnesium chloride in 0.1 M sodium phosphate buffer (pH 7.4) in a solid-state thermostat at 37° C. (XenoTech, USA, order no. H2610, cat. no. R1000, cat. no. M1000). Incubation was carried out in three replicates.
To determine the stability of compounds under sample preparation conditions, an aliquot in two replicates with the test compound and a microsomal fraction devoid of the NADPH cofactor, which was incubated for 40 minutes at 37° C.
Reactions were stopped at 0, 10, 20, 30 and 40 min time points by way of adding an ice mixture of acetonitrile:methanol (3:1) comprising an internal standard.
Samples were then centrifuged to remove the precipitated protein, supernatants were analyzed using HPLC-MS/MS to determine in vitro clearance (CLint) of the compounds. The Agilent 6410 mass spectrometer (Agilent, USA) combined with the Agilent 1260 Infinity II HPLC liquid chromatograph (Agilent, USA) and a cooling autosampler controlled by MassHunter software (Agilent, USA) was used as an HPLC-MS/MS system. Chromatographic analysis was performed on a C18 reversed-phase HPLC column (Agilent, Waters or equivalent) in a gradient elution mode in a system of mobile phases: 0.1% formic acid in water/0.1% formic acid in acetonitrile, flow rate: 0.5 ml/min, column T=35° C. Mass spectrometric detection was performed with electrospray ionization in multiple reaction monitoring mode. Precursor ions, fragment ions and collision energies for each substance were selected experimentally.
A graph of dependence of the logarithmic ratio between substance's peak area and internal standard's peak area vs time was built. The dependent coefficient of this line corresponded to the elimination rate constant k, on the basis of which the in vitro clearance CLint was calculated:
Based on resulting in vitro clearance CLint values, the microsomal stability of the selected compounds for humans, rats and mice was concluded.

CDK7/Cyclin H/MNAT1, sequence (P50613 whole entry): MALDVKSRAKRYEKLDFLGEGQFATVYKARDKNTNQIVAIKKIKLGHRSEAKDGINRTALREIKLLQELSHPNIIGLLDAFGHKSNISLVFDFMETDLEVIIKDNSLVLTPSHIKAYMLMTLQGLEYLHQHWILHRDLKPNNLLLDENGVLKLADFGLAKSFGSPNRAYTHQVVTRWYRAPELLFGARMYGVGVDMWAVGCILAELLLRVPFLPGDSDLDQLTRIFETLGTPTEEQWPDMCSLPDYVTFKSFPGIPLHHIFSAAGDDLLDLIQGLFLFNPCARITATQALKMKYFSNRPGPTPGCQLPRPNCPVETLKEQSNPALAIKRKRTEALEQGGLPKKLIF
CDK7/Cyclin H/MNAT1, sequence (P51946 whole entry partner): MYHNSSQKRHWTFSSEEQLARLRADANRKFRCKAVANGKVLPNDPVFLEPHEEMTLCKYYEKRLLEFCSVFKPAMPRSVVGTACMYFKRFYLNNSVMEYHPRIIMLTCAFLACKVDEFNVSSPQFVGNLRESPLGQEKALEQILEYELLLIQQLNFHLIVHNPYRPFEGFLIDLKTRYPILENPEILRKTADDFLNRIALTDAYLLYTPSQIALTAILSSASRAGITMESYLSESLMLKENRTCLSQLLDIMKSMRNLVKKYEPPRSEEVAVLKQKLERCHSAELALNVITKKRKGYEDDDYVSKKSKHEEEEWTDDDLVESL
CDK7/Cyclin H/MNAT1, sequence (P51948 whole entry partner): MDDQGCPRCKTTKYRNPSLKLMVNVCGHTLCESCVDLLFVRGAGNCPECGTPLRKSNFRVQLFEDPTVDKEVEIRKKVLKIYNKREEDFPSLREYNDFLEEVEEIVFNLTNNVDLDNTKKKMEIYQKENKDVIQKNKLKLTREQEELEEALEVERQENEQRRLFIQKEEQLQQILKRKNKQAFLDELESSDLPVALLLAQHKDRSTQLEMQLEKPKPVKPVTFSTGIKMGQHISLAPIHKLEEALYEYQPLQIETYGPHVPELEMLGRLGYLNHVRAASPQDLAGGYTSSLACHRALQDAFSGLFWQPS

- IC50 ([1]; mean of multiple measurement series, ATP 10 μM, read-out: CDK7/Cyclin H/MNAT1 IC50): < 5 nM
- IC50 ([1]; mean value from several measurements, read-out: IC50 CDK7/Cyclin H/MNAT): < 5 nM
- IC50 ([2]; mean of multiple measurement series, ATP 50 μM, read-out: CDK2/Cyclin A IC50): 15700 nM
- IC50 ([2]; mean value from several measurements, read-out: IC50 CDK2/Cyclin A): > 200 nM
- Papp at 20 h, 10 μmol [4]: 1 to 5 ×10⁻⁶ cm/s
- RLM Clint [5]: A (Clint < 20 μl/(min · mg of protein))
SMILES: CN1CCCc2c(-c3nc(N[C@H]4CCC(C)(C)NC4)ncc3C(F)(F)F)c[nH]c2C1=O [CDK7_1187, 3-(2-{[(3S)-6,6-dimethylpiperidin-3-yl]amino}-5-(trifluoromethyl)py-rimidin-4-yl)-7-methyl-1H,4H,5H,6H,7H, 8H-pyrrolo[2,3-c]azepin-8-one]
- CC50 at 72 h [3]: > 2000 nM
